Measured values published in article PMC6270661, “Antileishmanial Lead Structures from Nature: Analysis of Structure-Activity Relationships of a Compound Library Derived from Caffeic Acid Bornyl Ester” (Molecules, 2014).
pIC50: −log10 of the molar value.

Assays:
[1] = AlamarBlue cytotoxicity assay on J774.1 macrophages; type: cell-based, murine; conditions: mouse, J774.1 macrophage cell line, mean of two independent experiments
[2] = test system: L. major promastigotes; experiment: AlamarBlue assay, antileishmanial activity against L. major promastigotes; type: cell-based, Leishmania major; conditions: for pIC50: mean of two independent experiments; for Selectivity index SI: SI = IC50 for J774.1/IC50 for L. major (promastigotes)
Procedure: (§1) Antileishmanial activities of the synthesized compounds were evaluated in L. major promastigotes as described before and in L. donovani promastigotes according to Hazra et al.. […] The antiprotozoal activities are presented in Table 1, Table 2 and Table 3 as inhibitory concentrations (IC50). […] Materials and methods for the biological assays have been described before by the authors. […] The protocol for the L. donovani quantitative colorimetric assay is outlined by Hazra et al.. The IC50 values are presented as mean values of two independent experiments against the parasite and macrophages.

[3] = Cytotoxicity against bone marrow derived macrophages (BMDM); type: cell-based, murine; conditions: mouse
Description: The amastigote is the intracellular pathogenic form of the parasite in the vertebrate host and therefore the important target. […] With regard to antileishmanial activity cinnamic acid menthyl (20) and […] (19) show good activities combined with low cytotoxicity. […] Materials and methods for the biological assays have been described before by the authors. […] The protocol for the L. donovani quantitative colorimetric assay is outlined by Hazra et al.. The IC50 values are presented as mean values of two independent experiments against the parasite and macrophages.

[4] = test system: cysteine-cathepsin (L. major promastigote full-lysate); experiment: Cysteine-cathepsin fluorescence activity assay with L. major promastigote full-lysate; type: biochemical, Leishmania major; conditions: preliminary experiments, result in words
[5] = test system: L. donovani promastigotes; experiment: Quantitative colorimetric assay against L. donovani promastigotes; type: cell-based; conditions: mean of two independent experiments
Procedure: as §1

[6] = test system: L. major amastigotes; experiment: L. major amastigote assay; type: cell-based, Leishmania major; conditions: for pIC50: Leishmania major; for Selectivity index SI: SI = IC50 for BMDM/IC50 for L. major (amastigotes)
[7] = test system: J774.1 murine cell line; experiment: AlamarBlue cytotoxicity assay on J774.1 macrophages; type: cell-based

| Compound | pIC50 ([2]; Leishmania major) | pIC50 ([5]; Leishmania donovani) | melting point | pIC50 [1] | also measured |
| --- | --- | --- | --- | --- | --- |
| CC1(C)C2CCC1(C)[C@H](OC(=O)/C=C/c1ccc(O)c(O)c1)C2 (stereo partly drawn) [Compound 1, Caffeic Acid (−)-bornyl Ester] | 4.31 | 4.56 | – | 5.08 | pIC50 [3]: 5.28; protease inhibitory activity [4]: showed protease inhibitory activity; pIC50 [6]: 4.32; Selectivity index SI [6]: 0.1 |
| COc1ccc(/C=C/C(=O)OC2CC3CCC2(C)C3(C)C)cc1O (stereo not drawn) [Compound 2, Isoferulic Acid (−)-bornyl Ester] | – | – | – | – | pIC50 ([7]; mean of two independent experiments): 4.31; pIC50 [2]: 4.19; pIC50 [3]: 4.31; pIC50 [5]: 4.38; pIC50 [6]: 4.41; Selectivity index SI [6]: 1.2 |
| CC1(C)C2CCC1(C)C(OC(=O)C=Cc1ccc(OCc3ccccc3)cc1)C2 (stereo not drawn) [Compound 6] | < 4.00 | < 4.00 | 93 to 95 °C | < 4.00 | – |
| CC1(C)C2CCC1(C)C(OC(=O)C=Cc1ccc([N+](=O)[O-])cc1)C2 (stereo not drawn) [Compound 9, 4-Nitrocinnamic Acid Isobornyl Ester] | < 4.00 | < 4.00 | 121 to 123 °C | < 4.00 | – |
| Cc1ccc(C(C)C)c(OC(=O)/C=C/c2ccc(O)c(O)c2)c1 [Compound 10, Caffeic Acid Thymyl Ester] | 4.24 | 4.38 | 115 to 117 °C | 5.02 | pIC50 [3]: 5.01; pIC50 [6]: 4.27; Selectivity index SI [6]: 0.2 |
| COc1ccc(/C=C/C(=O)Oc2cc(C)ccc2C(C)C)cc1O [Compound 11, Isoferulic Acid Thymyl Ester] | 4.22 | 4.10 | – | 4.34 | – |
| CC1CCC(C(C)C)C(OC(=O)/C=C/c2ccc(O)c(O)c2)C1 (stereo not drawn) [Compound 12, Caffeic Acid Menthyl Ester] | 4.23 | 4.10 | – | 5.71 | – |
| COc1ccc(/C=C/C(=O)OC2CC(C)CCC2C(C)C)cc1O (stereo not drawn) [Compound 13, Isoferulic Acid Menthyl Ester] | 4.27 | < 4.00 | – | 4.35 | – |
| CC1(C)C2CCC1(C)[C@H](OC(=O)/C=C/c1cccc(Cl)c1Cl)C2 (stereo partly drawn) [Compound 14, 2,3-Dichlorocinnamic acid (−)-bornyl ester] | 4.18 | < 4.00 | 86 to 87 °C | 4.23 | – |
| CC1(C)C2CCC1(C)C(OC(=O)C=Cc1ccccc1)C2 (stereo not drawn) [Compound 15, Cinnamic Acid (−)-Bornyl Ester] | 4.40 | – | – | 4.34 | Selectivity index SI [2]: 1.1; pIC50 [3]: 4.27; protease inhibitory activity [4]: showed protease inhibitory activity; pIC50 [6]: 4.96; Selectivity index SI [6]: 5.0 |
| Cc1ccc(C(C)C)c(OC(=O)/C=C/c2ccccc2)c1 [Compound 19, Cinnamic Acid Thymyl Ester] | 4.26 | < 4.00 | – | 4.35 | pIC50 [3]: < 3.83; pIC50 [6]: 4.31; Selectivity index SI [6]: >3.0 |
| CC1CCC(C(C)C)C(OC(=O)/C=C/c2ccccc2)C1 (stereo not drawn) [Compound 20, Cinnamic Acid Menthyl Ester] | 4.27 | 4.10 | – | 4.35 | pIC50 [3]: < 3.90; pIC50 [6]: 4.71; Selectivity index SI [6]: >6.4 |
| O=C(/C=C/c1ccccc1)OC12CC3CC(CC(C3)C1)C2 [Compound 21, Cinnamic Acid Adamantyl Ester] | 4.22 | < 4.00 | 66 °C | 4.33 | – |
| O=C(/C=C/c1ccccc1)Oc1ccc2ccccc2c1 [Compound 22] | 4.17 | 4.54 | 109 to 110 °C | 4.35 | – |
| O=C(/C=C/c1ccccc1)OC1CCCCC1 [Compound 23, Cinnamic Acid Cyclohexyl Ester] | < 4.00 | 4.63 | – | < 4.00 | – |
| CC(C)=CCCC(C)(OC(=O)C=Cc1ccccc1)C1CC=C(C)CC1 (stereo not drawn) [Compound 24, Cinnamic Acid Bisabolyl Ester] | < 4.00 | < 4.00 | – | < 4.00 | – |
| C=CCc1ccc(OC(=O)/C=C/c2ccccc2)c(OC)c1 [Compound 25, Cinnamic Acid Eugenyl Ester] | < 4.00 | 4.10 | – | 4.49 | – |
| CC(C)=CCC/C(C)=C/COC(=O)/C=C/c1ccccc1 [Compound 26, Cinnamic Acid Geranyl Ester] | < 4.00 | 4.38 | – | < 4.00 | – |
| CC1(C)C2CCC1(C)C(OC(=O)CCc1ccccc1)C2 (stereo not drawn) [Compound 27] | 4.30 | – | – | < 4.00 | cytotoxicity J774.1 (in words) ([7]; result in words): did not show cytotoxicity; Selectivity index SI [2]: >2.0 |
| C[C@@H]1[C@H](O)[C@@H](C)/C=C/C=C/C=C/C=C/C=C/C=C/C=C/[C@H](O[C@@H]2O[C@H](C)[C@@H](O)[C@H](N)[C@@H]2O)C[C@@H]2O[C@](O)(C[C@@H](O)C[C@@H](O)[C@H](O)CC[C@@H](O)C[C@@H](O)CC(=O)O[C@H]1C)C[C@H](O)[C@H]2C(=O)O [amphotericin B, reference compound] | – | 6.40 | – | – | – |
| CCCCCCCCCCCCCCCCOP(=O)([O-])OCC[N+](C)(C)C [miltefosine, reference compound] | 4.44 | – | – | 4.25 | pIC50 [3]: 4.18; pIC50 [6]: 4.48; Selectivity index SI [6]: 2.0 |
| N=C(N)c1ccc(OCCCCCOc2ccc(C(=N)N)cc2)cc1 [pentamidine, reference compound] | 4.09 | – | – | 4.41 | – |

Second part, led by results:

| pIC50 ([2]; Leishmania major) | pIC50 ([5]; Leishmania donovani) | melting point | Compound | pIC50 [1] | also measured |
| --- | --- | --- | --- | --- | --- |
| 4.15 | < 4.00 | 80 to 83 °C | CC1(C)C2CCC1(C)C(OC(=O)C=Cc1ccc(Cl)cc1)C2 (stereo not drawn) [Compound 3, 4-Chlorocinnamic Acid (−)-bornyl Ester] | 4.31 | – |
| < 4.00 | < 4.00 | 71 to 74 °C | CC1(C)C2CCC1(C)C(OC(=O)C=Cc1ccc(Br)cc1)C2 (stereo not drawn) [Compound 4, 4-Bromocinnamic Acid (−)-bornyl Ester] | 4.26 | – |
| < 4.00 | < 4.00 | 114 to 116 °C | CN(C)c1ccc(C=CC(=O)OC2CC3CCC2(C)C3(C)C)cc1 (stereo not drawn) [Compound 5, 4-N-Dimethylaminocinnamic Acid (−)-bornyl Ester] | < 4.00 | – |
| 4.34 | 4.46 | – | CC1(C)C2CCC1(C)C(OC(=O)C=Cc1ccc(O)c(O)c1)C2 (stereo not drawn) [Compound 7, Caffeic Acid Isobornyl Ester] | 5.06 | pIC50 [3]: 4.96; pIC50 [6]: 4.33; Selectivity index SI [6]: 0.2 |
| 4.22 | 4.13 | – | COc1ccc(C=CC(=O)OC2CC3CCC2(C)C3(C)C)cc1O (stereo not drawn) [Compound 8, Isoferulic Acid Isobornyl Ester] | 4.35 | – |
| 4.22 | < 4.00 | 87 to 90 °C | COc1ccc(/C=C/C(=O)O[C@@H]2CC3CCC2(C)C3(C)C)cc1 (stereo partly drawn) [Compound 16, 4-Methoxycinnamic Acid (−)-Bornyl Ester] | 4.37 | – |
| 4.09 | < 4.00 | 90 to 92 °C | CC1(C)C2CCC1(C)[C@H](OC(=O)/C=C/c1ccc(Cl)cc1Cl)C2 (stereo partly drawn) [Compound 17, 2,4-Dichlorocinnamic Acid (−)-bornyl Ester] | 4.22 | – |
| 4.19 | 4.29 | – | CC1(C)C2CCC1(C)[C@@H](OC(=O)/C=C/c1ccccc1)C2 (stereo partly drawn) [Compound 18, Cinnamic Acid Isobornyl Ester] | 4.34 | – |
| 4.51 | – | – | CC(=O)Oc1ccc(/C=C/C(=O)O[C@@H]2CC3CCC2(C)C3(C)C)cc1OC(C)=O (stereo partly drawn) [Compound 28, 3-(3,4-Bis(acetyloxy))phenyl Propenoic Acid (−)-Bornyl Ester] | 5.68 | – |
